Among the data in US10703733B2, “MCL-1 inhibitors” (Gilead Sciences, Inc., priority 2018, dated 2020) are IC50 and EC50 values, retold here.

Experiment [1] concerns the target MCL-1/Bim interaction (recombinant human MCL-1 protein, residues 171-327; biotinylated human Bim peptide, residues 51-76) (Homo sapiens (Human), UniProt Q07820). The experiment is described as follows: MCL-1/Bim Binding AlphaLISA Assay. The conditions noted are these: 0.0625 nM 6xHis-Mcl-1 (171-327), 0.0625 nM biotinylated-Bim peptide. The gist of the method: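 AlphaLISA with 0.0625 nM His-tagged MCL-1 and 0.0625 nM biotin-Bim peptide in 20 mM Hepes pH 7.5, 150 mM NaCl, 0.002% Brij 35, 1 mM DTT, 0.01% BSA. Compound preincubated 1 h with MCL-1, Bim added for 2 h, then acceptor and donor beads 1 h each.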
(In Alpha technology, singlet oxygen from a donor bead excites a nearby acceptor bead.)

The subject of another experiment is SKBR3 cells. The experiment in a line: SKBR3 Cell Viability Assay (CellTiter Glo). Type of experiment: cell-based. The conditions noted are these: Homo sapiens, SK-BR-3, 72 h, CellTiter Glo luminescence, read-out: MCL-1 CV SKBR3 EC50. The procedure, abridged:
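SKBR3 cells (6,000/well) in McCoy 5A + 10% FBS exposed to serially diluted compound for 72 h at 37° C., 5% CO2. Viability by CellTiter Glo luminescence; % inhibition normalized to DMSO (negative) and 10 μM puromycin (positive).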
A general note: ATP-based viability assays read luminescence as a measure of living cells.

For orientation: IC50 means the concentration that gives 50% inhibition. A word on the EC50: it is the midpoint of the concentration-response curve.

MCL-1/Bim interaction (recombinant human MCL-1 protein, residues 171-327; biotinylated human Bim peptide, residues 51-76), sequence (Q07820 171-327): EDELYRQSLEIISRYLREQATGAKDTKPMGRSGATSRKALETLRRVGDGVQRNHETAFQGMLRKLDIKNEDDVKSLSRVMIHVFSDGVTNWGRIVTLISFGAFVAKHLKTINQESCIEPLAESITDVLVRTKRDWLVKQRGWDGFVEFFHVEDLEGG

Consider `COC[C@@H]1Cn2cc(C(=O)N[S@@]3(=O)=NC(=O)c4ccc5c(c4)N(C[C@@H]4CC[C@H]4[C@@H](O)/C=C/C[C@H](C)C3)C[C@@]3(CCCc4cc(Cl)ccc43)CO5)cc2CO1` [Example 326], for which the IC50 in experiment [1] turned out to be 0.076 nM. In the experiment on SKBR3 cells, the concentration giving a half-maximal response (EC50) was 52.6 nM.

Consider `C[C@@H]1[C@@H](C)C/C=C/[C@H](O)[C@@H]2CC[C@H]2CN2C[C@@]3(CCCc4cc(Cl)ccc43)COc3ccc(cc32)C(=O)N=[S@]1(=O)NC(=O)c1cc2n(c1)C[C@H](CN1CCOCC1)OC2` [Example 327], for which the IC50 in experiment [1] was found to be 0.051 nM. Moreover, the concentration for a half-maximal effect (EC50) in the experiment with SKBR3 cells was 28.6 nM.

Turning to `CO[C@H]1/C=C/C[C@H](C)C[S@@](=O)(NC(=O)N[C@H]2C[C@@H]2CN2CCOCC2)=NC(=O)c2ccc3c(c2)N(C[C@@H]2CC[C@H]21)C[C@@]1(CCCc2cc(Cl)ccc21)CO3` [Example 328], the concentration for half-maximal inhibition (IC50) in experiment [1] came to 0.049 nM. In addition, the EC50 in the experiment with SKBR3 cells came to 72.2 nM.

On to `C[C@@H]1[C@@H](C)C/C=C/[C@H](O)[C@@H]2CC[C@H]2CN2C[C@@]3(CCCc4cc(Cl)ccc43)COc3ccc(cc32)C(=O)N=[S@]1(=O)NC(=O)c1cc2n(c1)C[C@H](CO)OC2` [Example 329], for which the IC50 in experiment [1] turned out to be 0.087 nM. Also, the EC50 with SKBR3 cells was 57 nM.

Take `CO[C@H]1/C=C/C[C@H](C)C[S@@](=O)(NC(=O)N2CCC(OC(F)F)CC2)=NC(=O)c2ccc3c(c2)N(C[C@@H]2CC[C@H]21)C[C@@]1(CCCc2cc(Cl)ccc21)CO3` [Example 330]: the half-inhibitory concentration (IC50) in experiment [1] amounted to 0.03 nM. Moreover, the EC50 with SKBR3 cells amounted to 56.4 nM.

In the case of `COCC1(COC)Cn2cc(C(=O)N[S@@]3(=O)=NC(=O)c4ccc5c(c4)N(C[C@@H]4CC[C@H]4[C@@H](O)/C=C/C[C@H](C)[C@H]3C)C[C@@]3(CCCc4cc(Cl)ccc43)CO5)cc2CO1` [Example 331], in experiment [1], the IC50 came out at 0.075 nM. For the same compound, in the experiment on SKBR3 cells, the EC50 came out at 68.9 nM.

As to `CO[C@H]1/C=C/C[C@H](C)C[S@@](=O)(NC(=O)c2cc(C(=O)N(C)C)n(C)c2)=NC(=O)c2ccc3c(c2)N(C[C@@H]2CC[C@H]21)C[C@@]1(CCCc2cc(Cl)ccc21)CO3` [Example 332], in experiment [1], the IC50 was determined as 0.071 nM. Further, the EC50 with SKBR3 cells was 51.1 nM.

Regarding `CO[C@H]1/C=C/C[C@H](C)C[S@@](=O)(NC(=O)N2CC(N(C)C)C2)=NC(=O)c2ccc3c(c2)N(C[C@@H]2CC[C@H]21)C[C@@]1(CCCc2cc(Cl)ccc21)CO3` [Example 333], the IC50 in experiment [1] is 0.039 nM. For the same compound, the EC50 with SKBR3 cells stood at 38.3 nM.

In the case of `CO[C@H]1/C=C/C[C@H](C)C[S@@](=O)(NC(=O)N2CCN3CCOC[C@H]3C2)=NC(=O)c2ccc3c(c2)N(C[C@@H]2CC[C@H]21)C[C@@]1(CCCc2cc(Cl)ccc21)CO3` [Example 334], the IC50 in experiment [1] was found to be 0.041 nM. For the same compound, the 50% effective concentration (EC50) in the experiment on SKBR3 cells is 48.6 nM.

Consider `CO[C@H]1/C=C/C[C@H](C)C[S@@](=O)(NC(=O)N[C@H]2C[C@H](COC(=O)N(C)C)C2)=NC(=O)c2ccc3c(c2)N(C[C@@H]2CC[C@H]21)C[C@@]1(CCCc2cc(Cl)ccc21)CO3` [Example 335], for which, in experiment [1], the IC50 was 0.235 nM. Moreover, the EC50 in the experiment with SKBR3 cells was 66.2 nM.

Consider `CO[C@H]1/C=C/C[C@H](C)C[S@@](=O)(NC(=O)N[C@H]2C[C@@H](COC(=O)N(C)C)C2)=NC(=O)c2ccc3c(c2)N(C[C@@H]2CC[C@H]21)C[C@@]1(CCCc2cc(Cl)ccc21)CO3` [Example 336], for which, in experiment [1], the half-maximal inhibitory concentration (IC50) was determined as 0.1 nM. Besides, the half-maximal effective concentration (EC50) in the experiment with SKBR3 cells worked out at 60.4 nM.

Take `COCCn1cc(C(=O)N[S@@]2(=O)=NC(=O)c3ccc4c(c3)N(C[C@@H]3CC[C@H]3[C@@H](OC)/C=C/C[C@H](C)C2)C[C@@]2(CCCc3cc(Cl)ccc32)CO4)cc1COC` [Example 337]: the IC50 in experiment [1] was found to be 0.05 nM. In addition, the EC50 with SKBR3 cells was 86.4 nM.

Consider `COCCCn1cc(C(=O)N[S@@]2(=O)=NC(=O)c3ccc4c(c3)N(C[C@@H]3CC[C@H]3[C@@H](OC)/C=C/C[C@H](C)C2)C[C@@]2(CCCc3cc(Cl)ccc32)CO4)cc1COC` [Example 338], for which the IC50 in experiment [1] was found to be 0.09 nM. In the experiment on SKBR3 cells, the EC50 amounted to 124 nM.

`COCc1oc(C(=O)N[S@@]2(=O)=NC(=O)c3ccc4c(c3)N(C[C@@H]3CC[C@H]3[C@@H](OC)/C=C/C[C@H](C)C2)C[C@@]2(CCCc3cc(Cl)ccc32)CO4)cc1C` [Example 339]: the half-maximal inhibitory concentration (IC50) in experiment [1] was determined as 0.07 nM. In addition, in the experiment with SKBR3 cells, the concentration for a half-maximal effect (EC50) was 53.2 nM.

In the case of `CO[C@H]1/C=C/C[C@H](C)C[S@@](=O)(NC(=O)NC23COC(C)(C2)C3)=NC(=O)c2ccc3c(c2)N(C[C@@H]2CC[C@H]21)C[C@@]1(CCCc2cc(Cl)ccc21)CO3` [Example 340], in experiment [1], the concentration for half-maximal inhibition (IC50) was determined as 0.031 nM. For the same compound, the EC50 with SKBR3 cells was determined as 37.1 nM.

As to `COc1nn(C)cc1C(=O)N[S@@]1(=O)=NC(=O)c2ccc3c(c2)N(C[C@@H]2CC[C@H]2[C@@H](O)/C=C\C[C@H](C)[C@H]1C)C[C@@]1(CCCc2cc(Cl)ccc21)CO3` [Example 343], in experiment [1], the concentration for half-maximal inhibition (IC50) worked out at 0.019 nM. In addition, in the experiment with SKBR3 cells, the EC50 turned out to be 17.3 nM.

For `COC[C@H]1Cn2cc(C(=O)N[S@@]3(=O)=NC(=O)c4ccc5c(c4)N(C[C@@H]4CC[C@H]4[C@@H](O)/C=C/C[C@H](C)[C@H]3C)C[C@@]3(CCCc4cc(Cl)ccc43)CO5)cc2CO1` [Example 344], the IC50 in experiment [1] came out at 0.049 nM. In addition, the EC50 in the experiment on SKBR3 cells amounted to 18.5 nM.

As for `COC[C@@H]1Cn2cc(C(=O)N[S@@]3(=O)=NC(=O)c4ccc5c(c4)N(C[C@@H]4CC[C@H]4[C@@H](O)/C=C/C[C@H](C)[C@H]3C)C[C@@]3(CCCc4cc(Cl)ccc43)CO5)cc2CO1` [Example 345], the IC50 in experiment [1] worked out at 0.037 nM. Moreover, in the experiment on SKBR3 cells, the concentration giving a half-maximal response (EC50) was 22.6 nM.

With `COCC1CN(C(=O)N[S@@]2(=O)=NC(=O)c3ccc4c(c3)N(C[C@@H]3CC[C@H]3[C@@H](OC)/C=C/C[C@H](C)C2)C[C@@]2(CCCc3cc(Cl)ccc32)CO4)C1` [Example 346], the IC50 in experiment [1] amounted to 0.031 nM. Moreover, the EC50 in the experiment on SKBR3 cells came to 30.9 nM.

As for `CO[C@H]1CCN(C(=O)N[S@@]2(=O)=NC(=O)c3ccc4c(c3)N(C[C@@H]3CC[C@H]3[C@@H](OC)/C=C/C[C@H](C)C2)C[C@@]2(CCCc3cc(Cl)ccc32)CO4)C1` [Example 347], the IC50 in experiment [1] was found to be 0.084 nM. The EC50 in the experiment on SKBR3 cells stood at 79.8 nM.

As to `CO[C@H]1/C=C/C[C@H](C)C[S@@](=O)(NC(=O)N2CC(n3ccnc3)C2)=NC(=O)c2ccc3c(c2)N(C[C@@H]2CC[C@H]21)C[C@@]1(CCCc2cc(Cl)ccc21)CO3` [Example 348], the IC50 in experiment [1] turned out to be 0.041 nM. The EC50 in the experiment with SKBR3 cells is 84.7 nM.

Take `CO[C@H]1/C=C/C[C@H](C)C[S@@](=O)(NC(=O)N2CC(N3CCOCC3)C2)=NC(=O)c2ccc3c(c2)N(C[C@@H]2CC[C@H]21)C[C@@]1(CCCc2cc(Cl)ccc21)CO3` [Example 349]: in experiment [1], the 50% inhibitory concentration (IC50) is 0.026 nM. For the same compound, in the experiment on SKBR3 cells, the EC50 amounted to 33.7 nM.

Take `CO[C@@H]1CCN(C(=O)N[S@@]2(=O)=NC(=O)c3ccc4c(c3)N(C[C@@H]3CC[C@H]3[C@@H](OC)/C=C/C[C@H](C)C2)C[C@@]2(CCCc3cc(Cl)ccc32)CO4)C1` [Example 350]: the IC50 in experiment [1] came out at 0.055 nM. Besides, the concentration for a half-maximal effect (EC50) in the experiment with SKBR3 cells turned out to be 75.6 nM.

Consider `CO[C@H]1/C=C/C[C@H](C)C[S@@](=O)(NC(=O)N2CC(C(F)F)C2)=NC(=O)c2ccc3c(c2)N(C[C@@H]2CC[C@H]21)C[C@@]1(CCCc2cc(Cl)ccc21)CO3` [Example 351], for which the IC50 in experiment [1] amounted to 0.035 nM. For the same compound, the EC50 in the experiment with SKBR3 cells amounted to 58.8 nM.

As to `CO[C@H]1/C=C/C[C@H](C)C[S@@](=O)(NC(=O)N2CC(Oc3cccnc3)C2)=NC(=O)c2ccc3c(c2)N(C[C@@H]2CC[C@H]21)C[C@@]1(CCCc2cc(Cl)ccc21)CO3` [Example 352], in experiment [1], the IC50 was found to be 0.046 nM. Moreover, the 50% effective concentration (EC50) with SKBR3 cells was 54.4 nM.
